Measured values taken from US12150995B2, “IRAK degraders and uses thereof” (Kymera Therapeutics, Inc., priority 2020, dated 2024).

What follows are compounds tested against T1, IRAK4 (Homo sapiens, UniProt Q9NWZ3) (assay: IRAK4 MSD Degradation in OCI-LY10). Conditions: OCI-LY10 cells, Meso Scale Discovery, incubated 4 to 24 hours.
T1 construct: endogenous in cells; host or cells: OCI-LY10
T1 sequence (Q9NWZ3 1-460): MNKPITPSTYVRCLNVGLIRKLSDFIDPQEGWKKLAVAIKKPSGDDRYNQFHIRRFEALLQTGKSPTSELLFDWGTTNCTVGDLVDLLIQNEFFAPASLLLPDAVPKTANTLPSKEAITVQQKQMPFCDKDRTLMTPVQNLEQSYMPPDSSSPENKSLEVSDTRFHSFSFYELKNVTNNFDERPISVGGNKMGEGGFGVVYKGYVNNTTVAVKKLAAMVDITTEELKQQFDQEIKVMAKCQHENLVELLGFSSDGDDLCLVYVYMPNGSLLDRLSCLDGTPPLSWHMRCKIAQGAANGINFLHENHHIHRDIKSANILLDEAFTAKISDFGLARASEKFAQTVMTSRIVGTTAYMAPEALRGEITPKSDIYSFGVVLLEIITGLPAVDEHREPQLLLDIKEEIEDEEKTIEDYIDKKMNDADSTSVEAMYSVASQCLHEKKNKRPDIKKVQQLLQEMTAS
Format: cell-based
Summary of the method: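 IRAK4 degradation was quantified by Meso Scale electrochemiluminescence (anti-IRAK4 capture and detection antibodies) in lysates of treated OCI-LY10 cells. Compounds were dosed at 8 concentrations (1:3 dilutions, top 1 to 10 μM) for 4 to 24 h; DC50 derived by three-parameter logistic fitting.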

| DC50 | SMILES |
| --- | --- |
| < 10 nM | COc1cc2nn([C@H]3CC[C@H](CN4CCC(c5cccc6c5n(C)c(=O)n6C5CCC(=O)NC5=O)CC4)CC3)cc2cc1NC(=O)c1cncc(C#N)c1 (stereo partly shown) [I-77] |
| < 10 nM | CC(C)(O)c1cc2nn([C@H]3CC[C@H](CN4CCC(c5cccc6c(N7CCC(=O)NC7=O)cncc56)CC4)CC3)cc2cc1NC(=O)c1cccc(C(F)(F)F)n1 [I-78, N-[2-[4-[[4-[4-(2,4-dioxohexahydropyrimidin-1-yl)-8-isoquinolyl]-1-piperidyl]methyl]cyclohexyl]-6-(1-hydroxy-1-methyl-ethyl)indazol-5-yl]-6-(trifluoromethyl)pyridine-2-carboxamide] |
| > 200 nM | CN(C[C@H]1CC[C@H](n2cc3cc(NC(=O)c4cccc(C(F)(F)F)n4)ncc3n2)CC1)C1CCN(c2cccc3c(N4CCC(=O)NC4=O)cncc23)CC1 [I-79] |
| < 10 nM | COc1cc2nn([C@H]3CC[C@H](CN(C)C4CCN(c5cccc6c5n(C)c(=O)n6C5CCC(=O)NC5=O)CC4)CC3)cc2cc1NC(=O)c1cncc(Cl)c1 (stereo partly shown) [I-80] |
| < 10 nM | COc1cc2nn([C@H]3CC[C@H](CN(C)C4CCN(c5cccc6c5n(C)c(=O)n6C5CCC(=O)NC5=O)CC4)CC3)cc2cc1NC(=O)c1cncc(F)c1 (stereo partly shown) [I-81] |
| < 10 nM | Cn1c(=O)n(C2CCC(=O)NC2=O)c2ccc(F)c(C3CCN(C[C@H]4CC[C@H](n5cc6cc(NC(=O)c7cccc(C(F)(F)F)n7)ncc6n5)CC4)CC3)c21 (stereo partly shown) [I-82] |
| < 10 nM | COc1ccc2c(c1C1CCN(C[C@H]3CC[C@H](n4cc5cc(NC(=O)c6cccc(C(F)(F)F)n6)ncc5n4)CC3)CC1)n(C)c(=O)n2C1CCC(=O)NC1=O (stereo partly shown) [I-83] |
| 50 to 100 nM | CC(C)Nc1cc(-n2ccc3cc(C#N)cnc32)ncc1C(=O)NC[C@H]1CC[C@H](CN(C)C2CCN(c3cccc4c3n(C)c(=O)n4C3CCC(=O)NC3=O)CC2)CC1 (stereo partly shown) [I-84] |
| 50 to 100 nM | CC(C)Nc1cc(-n2ccc3cc(C#N)cnc32)ncc1C(=O)NC[C@H]1CC[C@H](CN2CCC(c3cccc4c3n(C)c(=O)n4C3CCC(=O)NC3=O)CC2)CC1 (stereo partly shown) [I-85] |
| < 10 nM | COc1cc2nn([C@H]3CC[C@H](CN4CCC(c5cccc6c5n(C)c(=O)n6C5CCC(=O)NC5=O)CC4)CC3)cc2cc1NC(=O)c1cncc(C(F)(F)F)c1 (stereo partly shown) [I-86] |
| < 10 nM | COc1cc2nn([C@H]3C[C@H](CN4CCC(c5c(Cl)ccc6c5n(C)c(=O)n6C5CCC(=O)NC5=O)CC4)C3)cc2cc1NC(=O)c1cccc(C(F)(F)F)n1 (stereo partly shown) [I-87, N-[2-[3-[[4-[5-chloro-1-(2,6-dioxo-3-piperidyl)-3-methyl-2-oxo-benzimidazol-4-yl]-1-piperidyl]methyl]cyclobutyl]-6-methoxy-indazol-5-yl]-6-(trifluoromethyl)pyridine-2-carboxamide] |
| 10 to 50 nM | Cn1c(=O)n(C2CCC(=O)NC2=O)c2ccc(Cl)c(C3CCN(C[C@H]4CC[C@H](n5cc6cc(NC(=O)c7cccc(C(F)(F)F)n7)ncc6n5)CC4)CC3)c21 (stereo partly shown) [I-88] |
| 10 to 50 nM | COc1cc2nn([C@H]3C[C@H](CN4CCC(c5c(F)ccc6c5n(C)c(=O)n6C5CCC(=O)NC5=O)CC4)C3)cc2cc1NC(=O)c1cccc(C(F)(F)F)n1 (stereo partly shown) [I-89] |
| 10 to 50 nM | Cn1c(=O)n(C2CCC(=O)NC2=O)c2cccc(C3CCN(C[C@H]4C[C@H](n5cc6cc(NC(=O)c7cccc(C(F)(F)F)n7)c(Cl)cc6n5)C4)CC3)c21 (stereo partly shown) [I-90] |
| 10 to 50 nM | COc1cc2nn([C@H]3C[C@H](CN4CCC(c5cccc6c(N7CCC(=O)NC7=O)cncc56)CC4)C3)cc2cc1NC(=O)c1cccc(C(F)(F)F)n1 [I-91] |
| < 10 nM | COc1cc2nn([C@H]3CC[C@H](CN(C)C4CCN(c5cccc6c5n(C)c(=O)n6C5CCC(=O)NC5=O)CC4)CC3)cc2cc1NC(=O)c1cncc(C(F)(F)F)c1 (stereo partly shown) [I-92] |
| < 10 nM | COc1cc2nn([C@H]3CC[C@H](CN4CCC(c5cccc6c5n(C)c(=O)n6C5CCC(=O)NC5=O)CC4)CC3)cc2cc1NC(=O)c1cncc(Cl)c1 (stereo partly shown) [I-93] |
| > 200 nM | Cn1c(=O)n(C2CCC(=O)NC2=O)c2cccc(C3CCN(C(=O)[C@H]4CC[C@H](n5cc6cc(NC(=O)c7cccc(C(F)(F)F)n7)ccc6n5)CC4)CC3)c21 (stereo partly shown) [I-94, N-[2-[4-[4-[1-(2,6-dioxo-3-piperidyl)-3-methyl-2-oxo-benzimidazol-4-yl]piperidine-1-carbonyl]cyclohexyl]indazol-5-yl]-6-(trifluoromethyl)pyridine-2-carboxamide] |
| < 10 nM | Cn1c(=O)n(C2CCC(=O)NC2=O)c2cccc(C3CCN(C[C@H]4CC[C@H](n5cc6cc(NC(=O)c7cnn8cc(C#N)cnc78)ccc6n5)CC4)CC3)c21 (stereo partly shown) [I-95] |
| < 10 nM | COc1cc2nn([C@H]3CC[C@H](CN(C)C4CCN(c5cccc6c(N7CCC(=O)NC7=O)cncc56)CC4)CC3)cc2cc1NC(=O)c1cccc(C(F)(F)F)n1 [I-96] |
| < 10 nM | COc1cc2nn([C@H]3CC[C@H](CN4CCC(c5cccc6c(N7CCC(=O)NC7=O)cncc56)CC4)CC3)cc2cc1NC(=O)c1cccc(C(F)(F)F)n1 [I-97] |
| > 200 nM | CN(C[C@H]1CC[C@H](n2cc3cc(NC(=O)c4cccc(C(F)(F)F)n4)ccc3n2)CC1)C1CCN(c2cccc3c(N4CCC(=O)NC4=O)cncc23)CC1 [I-98] |

| DC50 | SMILES |
| --- | --- |
| < 10 nM | Cc1ccc2c(c1C1CCN(C[C@H]3CC[C@H](n4cc5cc(NC(=O)c6cccc(C(F)(F)F)n6)ccc5n4)CC3)CC1)n(C)c(=O)n2C1CCC(=O)NC1=O (stereo partly shown) [I-99] |
| > 200 nM | COc1cc2nn([C@H]3CC[C@H](CN(C)C4CCN(c5cccc6c5n(C)c(=O)n6C5CCC(=O)NC5=O)CC4)CC3)cc2cc1-n1cc(-c2cccc(C(F)(F)F)n2)nn1 (stereo partly shown) [I-100] |
| < 10 nM | COc1cc2nn([C@H]3CC[C@H](CN4CCC(c5c(F)ccc6c5n(C)c(=O)n6C5CCC(=O)NC5=O)CC4)CC3)cc2cc1NC(=O)c1cccc(C(F)(F)F)n1 (stereo partly shown) [I-101] |
| < 10 nM | Cc1ccc2c(c1C1CCN(C[C@H]3CC[C@H](n4cc5cc(NC(=O)c6cccc(C(F)(F)F)n6)ncc5n4)CC3)CC1)n(C)c(=O)n2C1CCC(=O)NC1=O (stereo partly shown) [I-102] |
| 10 to 50 nM | O=C1CCN(c2cncc3c(C4CCN(C[C@H]5CC[C@H](n6cc7cc(NC(=O)c8cccc(C(F)(F)F)n8)ncc7n6)CC5)CC4)cccc23)C(=O)N1 [I-103] |
| < 10 nM | COc1ccc2c(c1C1CCN(C[C@H]3CC[C@H](n4cc5cc(NC(=O)c6cccc(C(F)(F)F)n6)ncc5n4)CC3)CC1)n(C)c(=O)n2C1CCC(=O)NC1=O (stereo partly drawn) [I-104, N-[2-[4-[[4-[1-[(3S)-2,6-dioxo-3-piperidyl]-5-methoxy-3-methyl-2-oxo-benzimidazol-4-yl]-1-piperidyl]methyl]cyclohexyl]pyrazolo[3,4-c]pyridin-5-yl]-6-(trifluoromethyl)pyridine-2-carboxamide] |
| 50 to 100 nM | CC(C)Nc1cc(-n2ccc3cc(C#N)cnc32)ncc1C(=O)NC[C@H]1CC[C@H](CN(C)C2CCN(c3cccc4c3n(C)c(=O)n4C3CCC(=O)NC3=O)CC2)CC1 (stereo partly shown) [I-105] |
| 10 to 50 nM | Cn1c(=O)n(C2CCC(=O)NC2=O)c2ccc(Cl)c(C3CCN(C[C@H]4CC[C@H](n5cc6cc(NC(=O)c7cccc(C(F)(F)F)n7)ccc6n5)CC4)CC3)c21 (stereo partly shown) [I-106] |
| < 10 nM | CN(C)c1cc2nn([C@H]3CC[C@H](CN4CCC(c5cccc6c5n(C)c(=O)n6C5CCC(=O)NC5=O)CC4)CC3)cc2cc1NC(=O)c1cccc(C(F)(F)F)n1 (stereo partly shown) [I-107] |
| < 10 nM | COc1cc2nn([C@H]3CC[C@H](CN4CCC(c5c(C)ccc6c5n(C)c(=O)n6C5CCC(=O)NC5=O)CC4)CC3)cc2cc1NC(=O)c1cncc(C(F)(F)F)c1 (stereo partly shown) [I-108] |
| < 10 nM | COc1cc2nn([C@H]3CC[C@H](CN4CCC(c5c(C)ccc6c5n(C)c(=O)n6C5CCC(=O)NC5=O)CC4)CC3)cc2cc1NC(=O)c1cncc(C#N)c1 (stereo partly shown) [I-109] |
| < 10 nM | COc1cc2nn([C@H]3CC[C@H](CN4CCC(c5c(C)ccc6c5n(C)c(=O)n6C5CCC(=O)NC5=O)CC4)CC3)cc2cc1NC(=O)c1cncc(Cl)c1 (stereo partly shown) [I-110] |
| < 10 nM | COc1cc2nn([C@H]3CC[C@H](CN4CCC(c5c(OC)ccc6c5n(C)c(=O)n6C5CCC(=O)NC5=O)CC4)CC3)cc2cc1NC(=O)c1cncc(Cl)c1 (stereo partly shown) [I-111] |
| < 10 nM | COc1cc2nn([C@H]3CC[C@H](CN4CCC(c5cccc6c5n(C)c(=O)n6C5CCC(=O)NC5=O)CC4)CC3)cc2cc1NC(=O)n1ccc2cccnc21 (stereo partly shown) [I-112] |
| < 10 nM | COc1cc2nn([C@H]3CC[C@H](CN(C)C4CCN(c5cccc6c5n(C)c(=O)n6C5CCC(=O)NC5=O)CC4)CC3)cc2cc1NC(=O)n1ccc2cccnc21 (stereo partly shown) [I-113] |
| < 10 nM | CC(C)Nc1cc(-n2ccc3cc(C#N)cnc32)ncc1C(=O)N[C@H]1CC[C@H](CN2CCC(c3cccc4c3n(C)c(=O)n4C3CCC(=O)NC3=O)CC2)CC1 (stereo partly shown) [I-114] |
| > 200 nM | CC(C)Nc1cc(-n2ccc3cc(C#N)cnc32)ncc1C(=O)N1CCC(CN(C)C2CCN(c3cccc4c3n(C)c(=O)n4C3CCC(=O)NC3=O)CC2)CC1 (stereo not shown) [I-115] |
| 100 to 200 nM | COc1ccc2c(c1C1CCN(C[C@H]3CC[C@H](n4cc5cc(NC(=O)c6cncc(Cl)c6)ccc5n4)CC3)CC1)n(C)c(=O)n2C1CCC(=O)NC1=O (stereo partly shown) [I-116] |
| 50 to 100 nM | COc1cc2nn([C@H]3CC[C@H](CN(C)C4CCN(c5cccc6c(N7CCC(=O)NC7=O)cncc56)CC4)CC3)cc2cc1NC(=O)c1cncc(Cl)c1 [I-117] |
| < 10 nM | CC(C)Nc1cc(-n2ccc3cc(C#N)cnc32)ncc1C(=O)N[C@H]1CC[C@H](CN(C)C2CCN(c3cccc4c3n(C)c(=O)n4C3CCC(=O)NC3=O)CC2)CC1 (stereo partly shown) [I-118] |
| > 200 nM | COc1cc2nn([C@H]3C[C@H](CN4CCC(c5ccc6c(N7CCC(=O)NC7=O)cncc6c5)CC4)C3)cc2cc1NC(=O)c1cccc(C(F)(F)F)n1 [I-119] |
